{"source": "patent US12367980B2", "about": "“Methods for predicting treatment response in cancers” (Cancer Research Technology Limited, priority 2020, dated 2025)", "origin": "cited, not measured here", "system": "ovarian cancer patients", "conditions": "for response rate to Doxorubicin monotherapy: expected rate from clinical trials", "note": "Where two headings read alike, the source gives them in different places."}
{"smiles": "COc1cccc2c1C(=O)c1c(O)c3c(c(O)c1C2=O)C[C@@](O)(C(=O)CO)C[C@@H]3O[C@H]1C[C@H](N)[C@H](O)[C@H](C)O1", "note": "[Doxorubicin, doxorubicin]", "values": [{"measurement": "response rate to Doxorubicin monotherapy", "setting": "patients resistant to platinum chemotherapy", "value": 18, "unit": "%"}, {"measurement": "response rate to doxorubicin", "setting": "platinum resistant ovarian cancer patients", "value": 18, "unit": "%"}, {"measurement": "response rate to doxorubicin", "setting": "platinum sensitive ovarian cancer patients", "value": 52, "unit": "%"}, {"measurement": "response rate to Doxorubicin monotherapy", "setting": "platinum sensitive patients (Gordon et al., 2001)", "value": 28, "unit": "%"}]}
